{
  "source": "patent US11458203B2",
  "about": "“Pharmaceutical compositions comprising caffeic acid chelates” (Arizona Board of Regents, on behald of Arizona State …, priority 2017, dated 2022)",
  "key": {"HSV1": {"tested_on": "HSV1", "test": "HSV1 plaque formation assay in Vero cells", "format": "cell-based", "details": "for IC50: read-out: HSV1 IC50; for antiviral activity of the substance by itself (in words): component alone, not combined"}, "reovirus type 3": {"tested_on": "reovirus type 3", "format": "cell-based"}, "[1]": {"tested_on": "vesicular stomatitis virus (VSV)", "format": "cell-based", "details": "FIG. 6"}, "Vero cells": {"tested_on": "Vero cells", "details": "African green monkey, 24 h, 27000 μM"}, "Rhinovirus 14": {"tested_on": "Rhinovirus 14", "format": "cell-based"}, "[2]": {"tested_on": "vaccinia virus (Copenhagen strain)", "format": "cell-based", "details": "FIG. 6"}, "Zika virus": {"tested_on": "Zika virus", "format": "cell-based", "details": "at the concentrations tested"}, "HSV2": {"tested_on": "HSV2", "test": "HSV2 plaque formation assay in Vero cells", "format": "cell-based", "details": "FIG. 6", "description": "The antiviral assays were conducted as follows. For HSV1 and HSV2, Vero cells were grown in Dulbecco's minimal essential media containing 10% heat inactivated fetal bovine serum and antibiotic/antimycotic (ThermoFisher) in a 37° C., 5% CO2 incubator. Cells were seeded in standard 6-well tissue culture dishes. HSV1 virus was diluted to 100 plaque forming units/100 μL complete media. The virus samples were treated for 15 minutes with the indicated concentrations of the test compound/material. These treated viral samples were used to infect the confluent Vero cell monolayers. Cells were infected for 1 hour at 37° C. with occasional rocking. After 1 hour, 2 mLs of complete media was added to each well. The test compound was added to the media at the indicated concentration. The dishes were placed in the incubator for 3 days. After 3 days, the media was removed and the cells stained with 0.5% crystal violet. The number of plaques present were counted by hand and graphed as a percent relative to untreated samples."}, "VSV-Ebola pseudotype": {"tested_on": "VSV-Ebola pseudotype", "format": "cell-based, VSV-Ebola pseudotype (Zaire Ebola virus glycoprotein)"}, "[3]": {"details": "test compound paired with Fe^3+, FIG. 7 and FIG. 8"}, "[4]": {"details": "Human alphaherpesvirus 1, Vero, test compound paired with Fe^3+, single dose-response trial, minimum three concentrations, FIG. 7 and FIG. 8"}},
  "note": "Where two headings read alike, the source gives them in different places.",
  "data": [
    {"compound": "O=C(O)C=Cc1ccc(O)cc1O", "note": "[2,4-dihydroxycinnamic acid]", "values": [
      {"measurement": "anti-HSV1 activity (in words)", "setting": "HSV1; [3]", "value": "inactivity"}
    ]},
    {"compound": "O=C(O)c1ccc(O)c(O)c1", "note": "[3,4-dihydroxybenzoic acid]", "values": [
      {"measurement": "anti-HSV1 activity (in words)", "setting": "HSV1; [3]", "value": "low activity"}
    ]},
    {"compound": "O=C(O)Cc1ccc(O)c(O)c1", "note": "[3,4-dihydroxylphenylacetic acid]", "values": [
      {"measurement": "IC50", "setting": "HSV1; [4]", "value": 101, "unit": "µM"}
    ]},
    {"compound": "O=C(O)C(O)Cc1ccc(O)c(O)c1", "note": "(stereo not drawn) [Danshensu, 3-(3,4-dihydroxyphenyl)-2-hydroxypropanoic acid]", "values": [
      {"measurement": "IC50", "setting": "HSV1; Human alphaherpesvirus 1, Vero", "value": 47.1, "unit": "µM"}
    ]},
    {"compound": "CC(Cc1ccc(O)c(O)c1)C(C)Cc1ccc(O)c(O)c1", "note": "(stereo not drawn) [Nordihydroguaiaretic acid]", "values": [
      {"measurement": "anti-HSV1 activity at highest concentration tested", "setting": "HSV1; combined with iron(III), at 330 μM, FIG. 8", "value": "no activity"},
      {"measurement": "anti-HSV1 activity (in words)", "setting": "HSV1; [3]", "value": "low activity"},
      {"measurement": "anti-HSV1 activity (in words)", "setting": "HSV1; test compound paired with Fe^3+, FIG. 7 and FIG. 8, listed as nordihydroguaiaretic acid", "value": "no anti-HSV1 activity"}
    ]},
    {"compound": "O=S(=O)(O)c1cc(O)c(O)c(S(=O)(=O)O)c1", "note": "[Tiron]", "values": [
      {"measurement": "anti-HSV1 activity (in words)", "setting": "HSV1; [3]", "value": "low activity"}
    ]},
    {"compound": "Nc1nc2c(ncn2COCCO)c(=O)[nH]1", "note": "[acyclovir]", "values": [
      {"measurement": "activity relative to the caffeic acid and iron chelates", "setting": "HSV1; positive control, FIG. 1 trial", "value": "about 20 fold"}
    ]},
    {"compound": "O=C(O)C=Cc1ccc(O)c(O)c1", "note": "[caffeic acid, 3,4-dihydroxycinnamic acid]", "values": [
      {"measurement": "effect on Reovirus (in words)", "setting": "reovirus type 3", "value": "unaffected"},
      {"measurement": "EC50", "setting": "HSV1; Human alphaherpesvirus 1, Vero, FIG. 1, inorganic ions added at half molar ratio to caffeic acid (2:1 organic:inorganic), caffeic acid alone = average of two separate tests, read-out: HSV1 EC50 (inhibition of plaque formation)", "value": 18600, "unit": "µM"},
      {"measurement": "IC50", "setting": "HSV1; [4]", "value": 66.7, "unit": "µM"},
      {"measurement": "antiviral activity of the substance by itself (in words)", "setting": "HSV1", "value": "weak antiviral properties"},
      {"measurement": "antiviral activity of the substance by itself (in words)", "setting": "HSV1; listed as Caffeic acid", "value": "minimal effect"},
      {"measurement": "effect on wild type VSV (in words)", "setting": "[1]", "value": "minimal effect"},
      {"measurement": "cell viability", "setting": "Vero cells", "value": "≥ 90", "unit": "%"},
      {"measurement": "effect on Rhinovirus (in words)", "setting": "Rhinovirus 14", "value": "unaffected"},
      {"measurement": "effect on vaccinia virus (in words)", "setting": "[2]", "value": "minimal effect"},
      {"measurement": "effect on Zika virus (in words)", "setting": "Zika virus", "value": "unaffected"},
      {"measurement": "effect on HSV2 (in words)", "setting": "HSV2", "value": "minimal effect"},
      {"measurement": "effect on VSV-Ebola pseudotype (in words)", "setting": "VSV-Ebola pseudotype", "value": "minimal effect"}
    ]},
    {"compound": "Oc1ccccc1O", "note": "[catechol]", "values": [
      {"measurement": "anti-HSV1 activity (in words)", "setting": "HSV1; [3]", "value": "low activity"}
    ]},
    {"compound": "NCCc1ccc(O)c(O)c1", "note": "[dopamine]", "values": [
      {"measurement": "anti-HSV1 activity (in words)", "setting": "HSV1; [3]", "value": "low activity"}
    ]},
    {"compound": "[Cl][Fe]([Cl])[Cl]", "note": "[iron(III), iron(III) chloride]", "values": [
      {"measurement": "antiviral activity of the substance by itself (in words)", "setting": "HSV1", "value": "no antiviral properties"},
      {"measurement": "antiviral activity of the substance by itself (in words)", "setting": "HSV1; listed as Iron(III)", "value": "no detectable antiviral activity"}
    ]},
    {"compound": "O=C(/C=C/c1ccc(O)c(O)c1)O[C@H](Cc1ccc(O)c(O)c1)C(=O)O", "note": "[rosmarinic acid]", "values": [
      {"measurement": "IC50", "setting": "HSV1; [4]", "value": 101, "unit": "µM"}
    ]},
    {"compound": "caffeic acid+sulfate", "values": [
      {"measurement": "anti-HSV1 activity compared with caffeic acid alone", "setting": "HSV1; FIG. 1, ion at half molar ratio to caffeic acid", "value": "no increased activity over caffeic acid alone"}
    ]},
    {"compound": "chicoric acid", "values": [
      {"measurement": "anti-HSV1 activity relative to caffeic acid, molar basis", "setting": "HSV1; paired with Fe^3+, FIG. 8", "value": "a little over triple that of caffeic acid"},
      {"measurement": "IC50", "setting": "HSV1; test compound paired with Fe^3+, single dose-response trial, minimum three concentrations, FIG. 7 and FIG. 8", "value": 17.4, "unit": "µM"}
    ]},
    {"compound": "copper(II)", "values": [
      {"measurement": "inhibition of plaque formation", "setting": "HSV1; inorganic ions in the absence of caffeic acid, 83 μM (highest dose tested), FIG. 2 and FIG. 3", "value": 38, "unit": "%"}
    ]}
  ]
}
